Results: the NIST ThermoML archive (doi:10.1021/acs.jced.7b00604)
± gives the expanded uncertainty stated by the source.

What was measured:
[1] = molar heat capacity at constant pressure; details: 100 kPa, Liquid, Extra sensitive DSC
[2] = 100 kPa, Liquid; for speed of sound: Frequency=3 MHz, Sing-around technique in a fixed-path interferometer; for mass density: Vibrating tube method
[3] = xn = mol fraction of the nth substance listed; details: 100 kPa, Liquid, x1 = 1; for speed of sound: Frequency=3 MHz, Sing-around technique in a fixed-path interferometer; for mass density: Vibrating tube method

Structure (SMILES) | molar heat capacity at constant pressure ([1]; 298.15 K) [J/K/mol] | molar heat capacity at constant pressure ([1]; 303.15 K) [J/K/mol] | molar heat capacity at constant pressure ([1]; 308.15 K) [J/K/mol] | molar heat capacity at constant pressure ([1]; 313.15 K) [J/K/mol] | molar heat capacity at constant pressure ([1]; 318.15 K) [J/K/mol] | molar heat capacity at constant pressure ([1]; 323.15 K) [J/K/mol] | speed of sound ([2]; 298.15 K) [m/s] | mass density ([2]; 298.15 K) [kg/m3] | speed of sound ([2]; 303.15 K) [m/s] | mass density ([2]; 303.15 K) [kg/m3] | speed of sound ([2]; 308.15 K) [m/s] | mass density ([2]; 308.15 K) [kg/m3] | speed of sound ([2]; 313.15 K) [m/s] | mass density ([2]; 313.15 K) [kg/m3] | speed of sound ([2]; 318.15 K) [m/s] | mass density ([2]; 318.15 K) [kg/m3] | speed of sound ([2]; 323.15 K) [m/s] | mass density ([2]; 323.15 K) [kg/m3] | also measured
CCCC[n+]1ccn(C)c1.O=S(=O)([N-]S(=O)(=O)C(F)(F)F)C(F)(F)F | 567.22 ± 22 | 569.85 ± 22 | 572.64 ± 22 | 575.47 ± 22 | 578.38 ± 22 | 581.52 ± 23 | 1227.8 ± 1.5 | 1437.12 ± 1.1 | 1216.7 ± 1.5 | 1432.51 ± 1.1 | 1205.8 ± 1.5 | 1427.43 ± 1.1 | 1194.9 ± 1.5 | 1422.86 ± 1.1 | 1184.2 ± 1.5 | 1417.91 ± 1.1 | 1173.6 ± 1.5 | 1413.58 ± 1.1 | 
CCCC[n+]1ccn(C)c1.O=S(=O)([N-]S(=O)(=O)C(F)(F)F)C(F)(F)F + COCCO |  |  |  |  |  |  |  |  |  |  |  |  |  |  |  |  |  |  | speed of sound ([3]; 298.15 K): 1227.8 ± 1.5 m/s; mass density ([3]; 298.15 K): 1437.12 ± 1.1 kg/m3; speed of sound ([3]; 303.15 K): 1216.7 ± 1.5 m/s; mass density ([3]; 303.15 K): 1432.51 ± 1.1 kg/m3; speed of sound ([3]; 308.15 K): 1205.8 ± 1.5 m/s; mass density ([3]; 308.15 K): 1427.43 ± 1.1 kg/m3; speed of sound ([3]; 313.15 K): 1194.9 ± 1.5 m/s; mass density ([3]; 313.15 K): 1422.86 ± 1.1 kg/m3; speed of sound ([3]; 318.15 K): 1184.2 ± 1.5 m/s; mass density ([3]; 318.15 K): 1417.91 ± 1.1 kg/m3; speed of sound ([3]; 323.15 K): 1173.6 ± 1.5 m/s; mass density ([3]; 323.15 K): 1413.58 ± 1.1 kg/m3
COCCO [2-methoxyethan-1-ol] | 175.32 ± 6.8 | 176.9 ± 6.8 | 178.41 ± 6.9 | 179.96 ± 7 | 181.45 ± 7 | 183.02 ± 7.1 | 1341.8 ± 1.5 | 960.31 ± 1 | 1324.1 ± 1.5 | 955.71 ± 1 | 1307.3 ± 1.5 | 951.08 ± 1 | 1292 ± 1.5 | 946.41 ± 1 | 1274.2 ± 1.5 | 941.72 ± 1 | 1259.4 ± 1.5 | 936.99 ± 1 | 
